Read-outs that look alike come from different tables or passages of the source. Blank lines part the entries; values can stand above or below the molecule they belong to.
Tests used:
[1] = target: T1, c-Met (cytoplasmic domain) (Homo sapiens, UniProt P08581); test: c-Met Kinase Assay (same methods as for ALK, with modifications); format: biochemical
T1 construct: 10 ng/mL c-Met (cytoplasmic domain, Invitrogen Corporation #PV3143); purchased Invitrogen Corporation PV3143
Summary of the method: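 IC50 values were fitted by variable-slope sigmoidal regression of percent inhibition against log compound concentration. Phosphorylation was read with Eu-N1 PT66 antibody after a 15 min, 37 °C reaction. The reaction was initiated with 10 ng/mL c-Met cytoplasmic domain on wells coated with 10 μg/mL PLC-γ in TBS.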

[2] = target: T2, baculovirus-expressed ALK (Homo sapiens, UniProt Q9UM73); test: ALK Kinase Assay (ELISA-type, time-resolved fluorescence); format: biochemical
T2 construct: host or cells: baculovirus expression system
Summary of the method: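 Wells were coated with phospholipase C-γ at 10 μg/mL in Tris-buffered saline. Adding 30 ng/ml enzyme started the reaction, which ran at 37° C for 15 minutes before Eu-N1 PT66 antibody detection. Percent inhibition versus log10 concentration gave IC50 by variable-slope fit.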

[3] = 1 μM ATP (Km level), read-out: cMet Activity (c-Met Kinase Inhibition, IC50)
[4] = 1 μM ATP (Km level), read-out: ALK Activity (ALK Kinase Inhibition, IC50)
[5] = 1 μM ATP (Km level), 10 ng/mL c-Met, read-out: cMet Activity (c-Met kinase inhibition, IC50 class)
[6] = 1 μM ATP (Km level), 30 ng/ml ALK, 37° C., 15 minutes, read-out: ALK Activity (ALK kinase inhibition, IC50 class)
[7] = c-Met kinase inhibition, 1 μM ATP, read-out: cMet Activity
[8] = ALK kinase inhibition, 1 μM ATP, read-out: ALK Activity
[9] = c-Met kinase inhibition, 1 μM ATP (Km level), read-out: cMet Activity
[10] = ALK kinase inhibition, 1 μM ATP (Km level), read-out: ALK Activity

T1 sequence (P08581 956-1390 limits assumed): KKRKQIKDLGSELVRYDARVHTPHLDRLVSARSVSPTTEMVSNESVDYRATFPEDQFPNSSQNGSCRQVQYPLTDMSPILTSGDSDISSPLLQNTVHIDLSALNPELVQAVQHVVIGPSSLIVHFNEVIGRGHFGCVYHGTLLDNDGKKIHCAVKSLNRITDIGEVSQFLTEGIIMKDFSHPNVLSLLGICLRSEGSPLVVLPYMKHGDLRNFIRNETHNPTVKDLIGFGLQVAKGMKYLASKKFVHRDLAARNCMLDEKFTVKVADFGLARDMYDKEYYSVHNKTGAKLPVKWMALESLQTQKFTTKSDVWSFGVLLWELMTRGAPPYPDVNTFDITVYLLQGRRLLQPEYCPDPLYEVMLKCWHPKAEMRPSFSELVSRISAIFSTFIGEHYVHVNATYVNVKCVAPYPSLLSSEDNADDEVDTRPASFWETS
T2 sequence (Q9UM73 19-1620): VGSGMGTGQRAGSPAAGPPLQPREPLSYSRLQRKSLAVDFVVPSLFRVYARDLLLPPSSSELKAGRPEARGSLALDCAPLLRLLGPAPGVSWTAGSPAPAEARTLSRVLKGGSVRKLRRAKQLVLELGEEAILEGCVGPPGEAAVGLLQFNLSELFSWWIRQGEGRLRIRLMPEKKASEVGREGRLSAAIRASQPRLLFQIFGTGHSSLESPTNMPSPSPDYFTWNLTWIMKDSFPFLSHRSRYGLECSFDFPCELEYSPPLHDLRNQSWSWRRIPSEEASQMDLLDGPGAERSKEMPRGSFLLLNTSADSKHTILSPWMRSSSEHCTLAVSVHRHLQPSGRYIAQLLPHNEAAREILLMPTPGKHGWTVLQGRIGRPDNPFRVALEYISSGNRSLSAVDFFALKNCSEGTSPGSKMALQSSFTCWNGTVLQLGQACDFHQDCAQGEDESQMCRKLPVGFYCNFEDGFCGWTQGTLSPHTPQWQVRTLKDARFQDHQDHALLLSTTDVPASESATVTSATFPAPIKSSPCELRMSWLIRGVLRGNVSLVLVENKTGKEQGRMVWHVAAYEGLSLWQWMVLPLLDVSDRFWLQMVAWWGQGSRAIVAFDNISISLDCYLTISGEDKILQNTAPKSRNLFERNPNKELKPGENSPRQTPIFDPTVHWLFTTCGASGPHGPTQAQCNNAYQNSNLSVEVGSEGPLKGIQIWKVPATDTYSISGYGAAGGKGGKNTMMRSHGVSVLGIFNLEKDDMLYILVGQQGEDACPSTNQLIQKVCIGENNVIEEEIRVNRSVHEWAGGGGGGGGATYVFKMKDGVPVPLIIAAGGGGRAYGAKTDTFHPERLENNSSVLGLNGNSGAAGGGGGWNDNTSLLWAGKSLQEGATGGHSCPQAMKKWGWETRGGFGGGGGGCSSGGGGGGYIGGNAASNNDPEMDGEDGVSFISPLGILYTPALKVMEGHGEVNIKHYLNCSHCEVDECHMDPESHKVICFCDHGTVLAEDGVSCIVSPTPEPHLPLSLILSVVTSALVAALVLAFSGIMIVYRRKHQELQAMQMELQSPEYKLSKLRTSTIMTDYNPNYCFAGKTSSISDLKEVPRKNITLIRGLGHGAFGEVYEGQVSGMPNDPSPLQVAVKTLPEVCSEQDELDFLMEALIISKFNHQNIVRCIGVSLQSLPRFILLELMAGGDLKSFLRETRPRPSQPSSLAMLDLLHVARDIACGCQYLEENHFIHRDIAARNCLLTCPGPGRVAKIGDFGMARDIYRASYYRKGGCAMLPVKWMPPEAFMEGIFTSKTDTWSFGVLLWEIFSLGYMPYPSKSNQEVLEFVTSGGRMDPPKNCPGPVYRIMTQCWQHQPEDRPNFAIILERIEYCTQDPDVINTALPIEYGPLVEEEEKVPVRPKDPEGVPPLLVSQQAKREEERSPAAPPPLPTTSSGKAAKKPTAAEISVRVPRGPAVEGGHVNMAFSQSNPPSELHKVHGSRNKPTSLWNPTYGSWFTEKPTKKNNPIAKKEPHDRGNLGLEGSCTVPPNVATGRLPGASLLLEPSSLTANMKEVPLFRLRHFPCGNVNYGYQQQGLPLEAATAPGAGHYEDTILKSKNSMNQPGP

SMILES: COc1c(Nc2ncc(Cl)c(N[C@@H]3CCCC[C@H]3NS(C)(=O)=O)n2)ccc2c1CCCC(N1CCOCC1)C2 (stereo partly drawn) [Example 949, N-{(1R,2R)-2-[5-Chloro-2-(1-methoxy-6-morpholin-4-yl-6,7,8,9-tetrahydro-5H-benzocyclohepten-2-ylamino)-pyrimidin-4-ylamino]-cyclohexyl}-methanesulfonamide]
IC50 [1, 3]: > 10000 nM | IC50 [2, 4]: < 100 nM

SMILES: CNC(=O)c1cccc(Cl)c1Nc1nc(Nc2ccc3c(c2)CCC(N2CCC(N4CCN(C)CC4)CC2)CC3)ncc1Cl (stereo not shown) [Example 1488, 3-Chloro-2-(5-chloro-2-{7-[4-(4-methyl-piperazin-1-yl)-piperidin-1-yl]-6,7,8,9-tetrahydro-5H-benzocyclohepten-2-ylamino}-pyrimidin-4-ylamino)-N-methyl-benzamide]
IC50 [1, 7]: < 100 nM | IC50 [2, 8]: 100 to 1000 nM

SMILES: COCCN1CCc2cc(Nc3ncc(Cl)c(NC4(C(=O)NCC#N)CC4)n3)c(OC)cc2CC1 [Example 1197, 1-{5-Chloro-2-[8-methoxy-3-(2-methoxy-ethyl)-2,3,4,5-tetrahydro-1H-benzo[d]azepin-7-ylamino]-pyrimidin-4-ylamino}-cyclopropanecarboxylic acid cyanomethyl-amide]
IC50 [1, 5]: > 10000 nM | IC50 [2, 6]: 1000 to 10000 nM

SMILES: COc1cc2c(cc1Nc1ncc(Cl)c(NC3(CC(N)=O)CCCCC3)n1)CCN(CC(=O)N(C)C)CC2 [Example 847, 2-{1-[5-Chloro-2-(3-dimethylcarbamoylmethyl-8-methoxy-2,3,4,5-tetrahydro-1H-benzo[d]azepin-7-ylamino)-pyrimidin-4-ylamino]-cyclohexyl}-acetamide]
IC50 [1, 3]: > 10000 nM | IC50 [2, 4]: 100 to 1000 nM

SMILES: CNC(=O)CN1CCc2cc(Nc3ncc(Cl)c(NC4C5C=CC(C5)C4C(N)=O)n3)c(OC)cc2CC1 (stereo not drawn) [Example 1117, (2-exo,3-exo)-3-[5-Chloro-2-(8-methoxy-3-methylcarbamoylmethyl-2,3,4,5-tetrahydro-1H-benzo[d]azepin-7-ylamino)-pyrimidin-4-ylamino]-bicyclo[2.2.1]hept-5-ene-2-carboxylic acid amide]
IC50 [1, 5]: > 10000 nM | IC50 [2, 6]: < 100 nM

SMILES: COCCN1CCc2cc(Nc3ncc(Cl)c(Nc4ccc(C(N)=O)cc4OC)n3)c(OC)cc2CC1 [Example 1156, 4-{5-Chloro-2-[8-methoxy-3-(2-methoxy-ethyl)-2,3,4,5-tetrahydro-1H-benzo[d]azepin-7-ylamino]-pyrimidin-4-ylamino}-3-methoxy-benzamide]
IC50 [1, 5]: > 10000 nM | IC50 [2, 6]: < 100 nM

SMILES: COc1cc2c(cc1Nc1ncc(Cl)c(N[C@@H]3CCCC[C@H]3NS(C)(=O)=O)n1)CCN(CC(F)(F)F)CC2 [Example 248, N-((1R,2R)-2-{5-Chloro-2-[8-methoxy-3-(2,2,2-trifluoro-ethyl)-2,3,4,5-tetrahydro-1H-benzo[d]azepin-7-ylamino]-pyrimidin-4-ylamino}-cyclohexyl)-methanesulfonamide]
IC50 [1, 9]: > 10000 nM | IC50 [2, 10]: < 100 nM

SMILES: CN1CCN(C[C@@H](O)C(F)(F)F)Cc2cc(OCC(F)(F)F)c(Nc3ncc(Cl)c(N[C@@H]4CCCC[C@H]4NS(C)(=O)=O)n3)cc21 [Example 498, N-((1R,2R)-2-{5-Chloro-2-[1-methyl-7-(2,2,2-trifluoro-ethoxy)-4-((R)-3,3,3-trifluoro-2-hydroxy-propyl)-2,3,4,5-tetrahydro-1H-benzo[e][1,4]diazepin-8-ylamino]-pyrimidin-4-ylamino}-cyclohexyl)-methanesulfonamide]
IC50 [1, 3]: > 10000 nM | IC50 [2, 4]: 100 to 1000 nM

SMILES: COc1cc2c(cc1Nc1ncc(Cl)c(N[C@@H]3CCCC[C@H]3NS(C)(=O)=O)n1)CCN(CC(=O)N1CCCC1)CC2 [Example 1160, N-((1R,2R)-2-{5-Chloro-2-[8-methoxy-3-(2-oxo-2-pyrrolidin-1-yl-ethyl)-2,3,4,5-tetrahydro-1H-benzo[d]azepin-7-ylamino]-pyrimidin-4-ylamino}-cyclohexyl)-methanesulfonamide]
IC50 [1, 5]: > 10000 nM | IC50 [2, 6]: < 100 nM

SMILES: CN(C)C(=O)N1CCN(C)c2cc(Nc3ncc(Cl)c(N[C@@H]4CCCC[C@H]4NS(C)(=O)=O)n3)ccc2C1 [Example 481, 8-[5-Chloro-4-((1R,2R)-2-methanesulfonylamino-cyclohexylamino)-pyrimidin-2-ylamino]-1-methyl-1,2,3,5-tetrahydro-benzo[e][1,4]diazepine-4-carboxylic acid dimethylamide]
IC50 [1, 9]: 1000 to 10000 nM | IC50 [2, 10]: < 100 nM

SMILES: CCCN1CCc2cc(Nc3ncc(Cl)c(N[C@H]4[C@@H](C(N)=O)[C@@H]5C=C[C@H]4C5)n3)c(OC)cc2CC1 [Example 774, (1S,2S,3R,4R)-3-[5-Chloro-2-(8-methoxy-3-propyl-2,3,4,5-tetrahydro-1H-benzo[d]azepin-7-ylamino)-pyrimidin-4-ylamino]-bicyclo[2.2.1]hept-5-ene-2-carboxylic acid amide]
IC50 [1, 3]: > 10000 nM | IC50 [2, 4]: < 100 nM

SMILES: CCNC(=O)c1cccc(F)c1Nc1nc(Nc2cc3c(cc2OC)CCN(CC(=O)N(C)C)CC3)ncc1Cl [Example 1119, 2-[5-Chloro-2-(3-dimethylcarbamoylmethyl-8-methoxy-2,3,4,5-tetrahydro-1H-benzo[d]azepin-7-ylamino)-pyrimidin-4-ylamino]-N-ethyl-3-fluoro-benzamide]
IC50 [1, 5]: 1000 to 10000 nM | IC50 [2, 6]: < 100 nM

Further lines, results first:

IC50 [1, 3]: 1000 to 10000 nM | IC50 [2, 4]: < 100 nM
SMILES: Cc1cccnc1-c1ccccc1Nc1nc(Nc2ccc3c(c2)C(C)(C)CCC(=O)N3)ncc1Cl [Example 971, 7-{5-Chloro-4-[2-(3-methyl-pyridin-2-yl)-phenylamino]-pyrimidin-2-ylamino}-5,5-dimethyl-1,3,4,5-tetrahydro-benzo[b]azepin-2-one]

IC50 [1, 5]: 1000 to 10000 nM | IC50 [2, 6]: < 100 nM
SMILES: COc1cc2c(cc1Nc1ncc(Cl)c(Nc3ccccc3S(=O)(=O)C(C)C)n1)CCC(NCC(F)F)CC2 (stereo not shown) [Example 1056, 5-Chloro-N*2*-[7-(2,2-difluoro-ethylamino)-3-methoxy-6,7,8,9-tetrahydro-5H-benzocyclohepten-2-yl]-N*4*-[2-(propane-2-sulfonyl)-phenyl]-pyrimidine-2,4-diamine]

IC50 [1, 9]: < 100 nM | IC50 [2, 10]: < 100 nM
SMILES: CNC(=O)c1ccccc1Nc1nc(Nc2ccc3c(c2)CCNCC3)ncc1Cl [Example 45, 2-[5-Chloro-2-(2,3,4,5-tetrahydro-1H-benzo[d]azepin-7-ylamino)-pyrimidin-4-ylamino]-N-methyl-benzamide]

IC50 [1, 9]: 1000 to 10000 nM | IC50 [2, 10]: < 100 nM
SMILES: CNS(=O)(=O)c1ccccc1Nc1nc(Nc2ccc3c(c2)C2CC3CN(S(C)(=O)=O)C2)ncc1Cl (stereo not shown) [Example 163, 2-[5-Chloro-2-(10-methanesulfonyl-10-aza-tricyclo[6.3.1.0*2,7*]dodeca-2,4,6-trien-4-ylamino)-pyrimidin-4-ylamino]-N-methyl-benzenesulfonamide]

IC50 [1, 7]: 1000 to 10000 nM | IC50 [2, 8]: 100 to 1000 nM
SMILES: CNC(=O)c1ccc2c(c1Nc1nc(Nc3ccc4c(c3)CCN(CCOC)CC4)ncc1Cl)OCO2 [Example 1480, 4-{5-Chloro-2-[3-(2-methoxy-ethyl)-2,3,4,5-tetrahydro-1H-benzo[d]azepin-7-ylamino]-pyrimidin-4-ylamino}-benzo[1,3]dioxole-5-carboxylic acid methylamide]

IC50 [1, 3]: 1000 to 10000 nM | IC50 [2, 4]: < 100 nM
SMILES: CS(=O)(=O)Nc1ccccc1Nc1nc(Nc2ccc3c(c2)CNCCS3)ncc1Cl [Example 518]

IC50 [1, 9]: 100 to 1000 nM | IC50 [2, 10]: 100 to 1000 nM
SMILES: CNC(=O)c1cc(C)cc(C)c1Nc1nc(Nc2ccc3c(c2)CCN(CCOC)CC3)ncc1Cl [Example 317, 2-{5-Chloro-2-[3-(2-methoxy-ethyl)-2,3,4,5-tetrahydro-1H-benzo[d]azepin-7-ylamino]-pyrimidin-4-ylamino}-3,5,N-trimethyl-benzamide]

IC50 [1, 9]: > 10000 nM | IC50 [2, 10]: < 100 nM
SMILES: COc1cc(N2CCOCC2)ccc1Nc1nc(Nc2ccc3c(c2)CCN(C[C@H](O)C(F)(F)F)CC3)ncc1Cl [Example 330, (S)-3-{7-[5-Chloro-4-(2-methoxy-4-morpholin-4-yl-phenylamino)-pyrimidin-2-ylamino]-1,2,4,5-tetrahydro-benzo[d]azepin-3-yl}-1,1,1-trifluoro-propan-2-ol]

IC50 [1, 5]: < 100 nM | IC50 [2, 6]: 100 to 1000 nM
SMILES: CNC(=O)c1cccc(Cl)c1Nc1nc(Nc2ccc3c(c2)CCN(CC(=O)N(C)C)CC3)ncc1Cl [Example 1370, 3-Chloro-2-[5-chloro-2-(3-dimethylcarbamoylmethyl-2,3,4,5-tetrahydro-1H-benzo[d]azepin-7-ylamino)-pyrimidin-4-ylamino]-N-methyl-benzamide]

IC50 [1, 5]: 1000 to 10000 nM | IC50 [2, 6]: 100 to 1000 nM
SMILES: CN1C(=O)OCCc2cc(Nc3ncc(Cl)c(Oc4c(F)cccc4OC4CCOC4)n3)ccc21 (stereo not shown) [Example 1307, 2-{5-Chloro-4-[2-fluoro-6-(tetrahydro-furan-3-yloxy)-phenoxy]-pyrimidin-2-ylamino}-5-methyl-8,9-dihydro-5H-7-oxa-5-aza-benzocyclohepten-6-one]

IC50 [1, 5]: > 10000 nM | IC50 [2, 6]: < 100 nM
SMILES: CCCNC(=O)c1ccccc1Nc1nc(Nc2cc3c(cc2OC)CCN(CCOC)CC3)ncc1Cl [Example 1026, 2-{5-Chloro-2-[8-methoxy-3-(2-methoxy-ethyl)-2,3,4,5-tetrahydro-1H-benzo[d]azepin-7-ylamino]-pyrimidin-4-ylamino}-N-propyl-benzamide]
